# In patent publication US20130252837A1, “METHOD FOR MEASURING RESISTANCE OR SENSITIVITY TO DOCETAXEL” (Sanofi US, priority 2004, published 2013):
# System: caspase-3
# Test: active caspase-3 levels, beadmates kit / Luminex
# Format: cell-based, human
# Conditions: 40 nM docetaxel, 48 hours, control siRNA cells
# Text: Docetaxel can cause cell death through induction of apoptosis (Kim et al., Int J Mol Med 11:799, 2003). To determine whether Pim-1 and BubR1 siRNAs could modulate a canonical apoptotic pathway in the absence and presence docetaxel, we studied activated caspase-3 levels in HCT116 cells (using a bioplex assay) (FIG. 14).
# In an attempt to define the molecular basis for enhanced cell death associated with a Pim-1 knockdown, we examined the activation state of a key cellular pathway involved in cell survival, AKT. HCT116 were seeded at 4×10^5 cells/well on 6-well plates and the next day transfected with siRNAs at 16 nM using Lipofectamine 2000 (Invitrogen). After 24 hours, cells were untreated or treated with 5 and 40 nM docetaxel. Cells were lysed 24, 48 and 72 hours after docetaxel addition with ice-cold lysis buffer (50 mM HEPES buffer (PH7.4), 1% NP40, 2.5 mM EDTA, 100 mM sodium fluoride, 10 mM sodium PPI, protease inhibitor cocktail tablet (Roche), 2 mM sodium orthovanadate) and centrifuged at 12,000 g for 10 minutes. Lysates were then quantified for total protein levels using DC protein assay (BioRad).
smiles,measurement,value
CC(=O)O[C@@]12CO[C@@H]1C[C@H](O)[C@@]1(C)C(=O)[C@H](O)C3=C(C)[C@@H](OC(=O)[C@H](O)[C@@H](NC(=O)OC(C)(C)C)c4ccccc4)C[C@@](O)([C@@H](OC(=O)c4ccccc4)[C@H]21)C3(C)C [docetaxel],caspase-3 activity in control cells,induced
